Results: ChEMBL document CHEMBL3351659, “Amine-linked diquercitols as new α-glucosidase inhibitors” (Bioorg Med Chem Lett, 2014)

Legend:
[1] = Inhibition of alpha-glucosidase (unknown origin); set-up: species or system Homo sapiens
[2] = Inhibition of Baker's yeast alpha-glucosidase pre-incubated for 10 mins before para-nitrophenyl-alpha-D-glucopyranoside substrate addition; set-up: species or system Saccharomyces cerevisiae
[3] = Inhibition of rat intestinal maltase using maltose substrate incubated for 10 mins
[4] = biological target: Sucrase-isomaltase, intestinal (Rattus norvegicus, UniProt P23739); experiment: Inhibition of rat intestinal sucrase using sucrose substrate incubated for 10 mins
Sequence of Sucrase-isomaltase, intestinal (P23739 1-1013 limits assumed): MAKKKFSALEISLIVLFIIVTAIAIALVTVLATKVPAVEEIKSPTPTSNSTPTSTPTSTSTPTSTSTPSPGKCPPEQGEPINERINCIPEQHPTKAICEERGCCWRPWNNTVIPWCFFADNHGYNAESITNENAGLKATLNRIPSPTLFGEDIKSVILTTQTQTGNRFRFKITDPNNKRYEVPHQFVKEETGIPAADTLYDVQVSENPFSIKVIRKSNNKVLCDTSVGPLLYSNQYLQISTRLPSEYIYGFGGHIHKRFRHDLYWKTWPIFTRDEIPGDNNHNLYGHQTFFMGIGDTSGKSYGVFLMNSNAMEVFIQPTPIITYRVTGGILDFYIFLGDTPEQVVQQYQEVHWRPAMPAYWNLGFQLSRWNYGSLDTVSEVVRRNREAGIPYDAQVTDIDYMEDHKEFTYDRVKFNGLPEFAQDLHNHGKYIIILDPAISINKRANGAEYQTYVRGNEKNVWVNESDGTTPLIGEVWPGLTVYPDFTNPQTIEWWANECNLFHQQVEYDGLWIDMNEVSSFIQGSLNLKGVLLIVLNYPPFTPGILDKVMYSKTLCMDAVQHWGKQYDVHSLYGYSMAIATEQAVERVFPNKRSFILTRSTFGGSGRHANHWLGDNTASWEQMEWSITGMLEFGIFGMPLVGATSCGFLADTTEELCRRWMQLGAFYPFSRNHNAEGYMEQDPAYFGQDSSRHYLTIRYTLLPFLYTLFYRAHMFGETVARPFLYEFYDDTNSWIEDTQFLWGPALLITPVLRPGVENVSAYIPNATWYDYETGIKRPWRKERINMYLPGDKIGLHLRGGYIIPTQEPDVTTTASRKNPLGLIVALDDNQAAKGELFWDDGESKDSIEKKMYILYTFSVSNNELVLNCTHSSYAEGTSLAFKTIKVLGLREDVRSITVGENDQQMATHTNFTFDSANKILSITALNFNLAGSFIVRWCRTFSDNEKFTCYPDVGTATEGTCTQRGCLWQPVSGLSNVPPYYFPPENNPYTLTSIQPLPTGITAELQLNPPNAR
Sequence of Sucrase-isomaltase, intestinal (P23739 1014-1841 limits assumed): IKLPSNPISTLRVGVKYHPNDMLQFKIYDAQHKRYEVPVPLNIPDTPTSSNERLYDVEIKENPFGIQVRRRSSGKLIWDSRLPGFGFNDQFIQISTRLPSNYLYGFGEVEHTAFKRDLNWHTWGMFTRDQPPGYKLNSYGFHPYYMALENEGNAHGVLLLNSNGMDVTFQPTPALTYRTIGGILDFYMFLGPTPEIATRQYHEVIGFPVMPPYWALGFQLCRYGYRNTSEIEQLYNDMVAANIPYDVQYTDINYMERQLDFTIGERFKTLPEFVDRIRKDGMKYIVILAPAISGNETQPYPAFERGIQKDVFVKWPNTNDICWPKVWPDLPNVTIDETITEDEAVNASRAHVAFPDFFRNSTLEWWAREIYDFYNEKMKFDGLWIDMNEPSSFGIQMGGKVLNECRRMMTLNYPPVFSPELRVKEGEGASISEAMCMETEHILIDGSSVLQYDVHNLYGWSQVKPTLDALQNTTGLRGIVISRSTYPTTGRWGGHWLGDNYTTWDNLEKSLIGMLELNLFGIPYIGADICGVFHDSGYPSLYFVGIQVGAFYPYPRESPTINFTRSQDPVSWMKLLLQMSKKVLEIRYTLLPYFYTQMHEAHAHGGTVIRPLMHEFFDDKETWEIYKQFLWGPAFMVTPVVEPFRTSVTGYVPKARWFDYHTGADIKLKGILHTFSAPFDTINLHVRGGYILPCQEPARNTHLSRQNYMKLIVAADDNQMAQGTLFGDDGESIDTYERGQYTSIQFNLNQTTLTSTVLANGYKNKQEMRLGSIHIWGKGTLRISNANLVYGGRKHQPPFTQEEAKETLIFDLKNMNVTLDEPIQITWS

Structure (SMILES) | IC50 [1] [µM] | IC50 [2] [µM] | IC50 [3] [µM] | IC50 [4] [µM]
CC(=O)N([C@H]1[C@H](O)[C@H](O)[C@@H](O)[C@@H](O)[C@@H]1O)[C@H]1[C@H](O)[C@H](O)[C@@H](O)[C@@H](O)[C@@H]1O | 370 | – | – | –
N[C@H]1[C@H](O)[C@H](O)[C@@H](O)[C@@H](O)[C@@H]1N[C@H]1[C@H](O)[C@H](O)[C@@H](O)[C@@H](O)[C@@H]1O | > 2000 | – | – | –
O[C@@H]1[C@@H](O)[C@H](O)C[C@H](N[C@H]2C[C@H](O)[C@@H](O)[C@H](O)[C@@H]2O)[C@@H]1O | – | 40.1 | 3.6 | 4
O[C@@H]1[C@@H](O)[C@@H](O)[C@H](N[C@H]2[C@H](O)[C@H](O)[C@@H](O)[C@@H](O)[C@@H]2O)[C@@H](O)[C@@H]1O | > 2000 | – | – | –
OC1CC(N[C@H]2C[C@@H](O)[C@H](O)[C@@H](O)[C@H]2O)[C@@H](O)[C@@H](O)[C@@H]1O (single isomer, unassigned) | – | 32.3 | 3.1 | 3.7
O[C@H]1[C@H](O)[C@@H](N[C@H]2C=C[C@@H](O)[C@@H](O)[C@@H]2O)C=C[C@H]1O | 1400 | – | – | –
C[C@H]1O[C@H](O[C@H]2[C@H](O)[C@@H](O)[C@@H](O[C@H]3[C@H](O)[C@@H](O)C(O)O[C@@H]3CO)O[C@@H]2CO)[C@H](O)[C@@H](O)[C@@H]1N[C@H]1C=C(CO)[C@@H](O)[C@H](O)[C@H]1O (some centres undefined) [ACARBOSE] | – | 404 | 1.5 | –
N[C@H]1C[C@@H](O)[C@H](O)[C@@H](O)[C@H]1O | – | 2890 | 5.8 | 7.3
N[C@@H]1C[C@@H](O)[C@H](O)[C@@H](O)[C@H]1O | – | 12.5 | 4.4 | 6.8
CC(=O)N([C@H]1C=C[C@@H](O)[C@@H](O)[C@@H]1O)[C@H]1C=C[C@@H](O)[C@@H](O)[C@@H]1O | 1350 | – | – | –
